Measurements taken from patent publication US11001562B2, “Near-infrared fluorescent nerve contrast agents and methods of use thereof” (Beth Israel Deaconess Medical Center, priority 2013, dated 2021).
Entries after “also recorded” stand apart in the source; their conditions may differ.

How the values were obtained:
[1] = test system: recurrent laryngeal nerve (RLN), brachial plexus (BP) and sciatic nerve (SN) of Yorkshire pigs; assay: Nerve targeting in large animals, intraoperative FLARE imaging; type: in vivo, pig; details: iv
Method: 20 μmol (0.17 mg/kg) of Oxazine 4 was injected intravenously into 35 kg Yorkshire pigs, and the SBR of nerves to the specified surrounding tissue was measured at different time points (T=0, 15, 30, 60, 120, 180, and 240 min). B) Real-time intraoperative fluorescence images of RLN (top), BP (middle), and SN (bottom) acquired at different time points (T=0, 15, 30, 60, 120, 180, and 240 min). Ad=adipose tissue; Mu=muscle; TEG=tracheoesophageal groove; Th=thyroid; Tr=trachea. Scale bars=1 cm. Fluorescence images have identical exposure times (500 msec) and normalizations. C) Fluorescence microscopic images of cryosectioned RLN, BP, and SN. Samples were obtained after injecting 20 μmol of Oxazine 4 into Yorkshire pigs 4 h prior to resection. Shown are representative images (N=5) of H&E (left) and NIR fluorescence (right) images. Scale bars=[…]. All NIR fluorescence images have identical exposure times and normalizations.
Animals were housed in an AAALAC-certified facility. Animal studies were performed under the supervision of Beth Israel Deaconess Medical Center's Institutional Animal Care and Use Committee (IACUC) in accordance with approved institutional protocols (#101-2011 for rodents and #046-2010 for pigs). […] Following anesthesia, electrocardiogram, heart rate, pulse oximetry, and body temperature were monitored throughout surgery.
Initial in vivo screening occurred in rats based on our previous study of BMB (Supplementary Methods) (25). […] The fluorescence signal in nervous tissues and signal-to-background ratio (SBR) compared to neighboring muscle (Mu) were obtained over the period of imaging. […]
The fluorescence intensity (FI) and background (BG) intensity of a region of interest (ROI) over each nerve/tissue were calculated and quantified using custom FLARE^a software. The FI of the RLN, BP, and SN at the optimal dose and time point were quantified to measure tissue-specific targeting. […]

[2] = test system: rat brachial plexus and sciatic nerves; assay: In vivo nerve-specificity screening with FLARE imaging
Description: The dual-NIR channel FLARE^a imaging system has been described in detail previously (26-28). In this study, a 670 nm excitation was used at a fluence rate of 4 mW/cm^2, with white light (400-650 nm) at 40,000 1×. Color and NIR fluorescence images were acquired simultaneously with custom software at rates up to 15 Hz over a 15 cm diameter field of view. A pseudo-colored lime green was used for NIR fluorescence in the color-NIR merged images. The imaging system was positioned at a distance of 18 inches from the surgical field.
Initial in vivo screening occurred in rats based on our previous study of BMB (Supplementary Methods) (25). For kinetic and dose-response studies, 50-400 nmol (0.8-6.3 mg/kg) of Oxazine 4 was injected intravenously into mice and measurements taken over 24 h. Control images were acquired prior to injecting NIR fluorophores. The fluorescence signal in nervous tissues and signal-to-background ratio (SBR) compared to neighboring muscle (Mu) were obtained over the period of imaging. For the large animal study, the optimal dose found in mice (200-400 nmol per mouse) was used in pigs by scaling to body surface area (29, 30).
Sprague-Dawley (SD) male rats weighing 250-300 g were purchased from Charles River Laboratories (Wilmington, Mass.). BMB, Oxazine 1, Oxazine 4, Oxazine 170, Oxazine 750, and Rhodamine 800 were initially screened to investigate nerve specificity in rats. For the initial screening, we administered a relatively high dose (2 mg/kg; 1 μmol) of each fluorophore intravenously. 4 h after injection, brachial plexus (BP) and sciatic nerve (SN) were imaged using the intraoperative FLARE^a system for in vivo nerve-specific fluorophores screening.

[3] = Optical property measurements (absorbance and fluorescence spectra); type: physicochemical; details: 100% FBS with 50 mM HEPES, pH 7.4, 37° C.
Method: Absorbance and fluorescence spectra were obtained at a concentration of […] in 100% FBS supplemented with 50 mM HEPES, pH 7.4. B) Optical properties of Oxazine 4 were measured in PBS (pH 7.4), FBS (pH 7.4), MeOH, and DMSO.
Oxazine derivatives were obtained from Fisher Scientific Inc. (Pittsburgh, Pa.) or Sigma-Aldrich (Saint Louis, Mo.), and BMB was synthesized as described previously (25). Optical measurements were performed at 37° C. in phosphate-buffered saline (PBS), pH 7.4 or 100% fetal bovine serum (FBS) buffered with 50 mM HEPES, pH 7.4. Absorbance and fluorescence emission spectra were measured using fiber optic HR2000 absorbance (200-1100 nm) and USB2000FL fluorescence (350-1000 nm) spectrometers (Ocean Optics, Dunedin, Fla.). NIR excitation was provided by a 532 nm green laser pointer (Opcom Inc., Xiamen, China) set to 5 mW and coupled through a […] core diameter, NA 0.22 fiber (Fiberguide Industries, Stirling, N.J.). In silico calculation of the partition coefficient (log D at pH 7.4) was calculated using Marvin and J Chem calculator plugins (ChemAxon, Budapest, Hungary). Chemical similarities were calculated by Instant J Chem 6.04 using “Chemical Hashed Fingerprint” with the Normalized Euclidean dissimilarity screening configuration (ChemAxon).
All optical measurements were performed at 37° C. in phosphate-buffered saline (PBS), pH 7.4, 100% fetal bovine serum (FBS) buffered with 50 mM HEPES, pH 7.4, methanol (MeOH), or dimethyl sulfoxide (DMSO). Absorbance and fluorescence emission spectra of the series of NIR fluorophores were measured using fiber optic HR2000 absorbance (200-1100 nm) and USB2000FL fluorescence (350-1000 nm) spectrometers (Ocean Optics, Dunedin, Fla.). Excitation light was provided by a 532 nm green laser pointer (Opcom Inc., Xiamen, China) set to 5 mW and coupled through a 300 μm core diameter, NA 0.22 fiber (Fiberguide Industries, Stirling, N.J.). In silico calculation of the partition coefficient (log D at pH 7.4) was calculated using Marvin and J Chem calculator plugins (ChemAxon, Budapest, Hungary).

[4] = comparison of structures in discussion

With `CC/N=c1/cc2oc3cc(NCC)c(C)cc3nc-2cc1C` [Oxazine 4] as the molecule, how does the “signal retention in BP and SN post injection” value [1] read?
Its value is “up to 3 h”.

And the “time of maximal SBR, BP and SN” value [1]?
Its value is 1 h.

What about the “time of maximal SBR, RLN” value ([1]; RLN vs surrounding tissue) of the same molecule?
Its value is 3 h.

What about the “nerve-specific fluorescence signal in vivo” value ([2]; SD rats, 2 mg/kg (1 μmol) iv, 4 h after injection, brachial plexus and sciatic nerve, 2 mg/kg) of the same molecule?
Its value is “highest nerve-specific fluorescence signal; also recorded: higher nerve-specific fluorescence signal”.

What about the “background (muscle and adipose tissue) fluorescence signal in vivo” value ([2]; SD rats, 2 mg/kg (1 μmol) iv, 4 h after injection, 2 mg/kg) of the same molecule?
The value was “lowest background; also recorded: lower background”.

What about the “adipose signal (discussion summary)” value [2, 4] of the same molecule?
Its value is “moderate adipose”.

What about the “nerve signal (discussion summary)” value [2, 4] of the same molecule?
Its value is “high nerve signal”.

What about the “Abs (peak absorbance)” value [3] of the same molecule?
The value was 616 nm.

And the “Em (peak emission)” value [3]?
The value was 635 nm.

And the “λ (extinction coefficient)” value [3]?
The value was 143,000 M^−1cm^−1.
